Measurements as given in ChEMBL document CHEMBL1149000, “Effects of p-Methoxycinnamaldehyde from Star Anise and Related Cinnamic Acid Derivatives on Velvetleaf Germination” (J Nat Prod, 1986).

Legend:
Abutilon theophrasti [1] = assay: Herbicidal activity against velvetleaf assessed as seed germination at 2.5 mM after 4 days relative to control; assay type: functional
Abutilon theophrasti [2] = assay: Herbicidal activity against velvetleaf assessed as seed germination at 1 mM after 4 days relative to control; assay type: functional
Abutilon theophrasti [3] = assay: Herbicidal activity against velvetleaf assessed as seed germination at 5 mM after 4 days relative to control; assay type: functional
[4] = Inhibition of cAMP phosphodiesterase at 0.05 mM
[5] = Toxicity in rat; assay type: organism-based; details: in vivo

Row | SMILES | Activity (Abutilon theophrasti [1]) | Activity (Abutilon theophrasti [2]) | Activity (Abutilon theophrasti [3]) | inhibition [4] | LD50 [5]
1 | COc1ccccc1/C=C/C=O | 3% | 77% | 0% |  | 
2 | COc1ccc(/C=C/C(=O)O)cc1 [4-METHOXYCINNAMIC ACID] | 83% | 107% | 83% |  | 
3 | C/C=C/c1ccc(OC)cc1 [ANETHOLE] | 100% | 98% | 95% |  | 
4 | O=C/C=C/c1ccccc1 [CINNAMALDEHYDE] | 0% | 57% | 0% |  | 
5 | O=C(O)/C=C/c1ccccc1 [CINNAMIC ACID] | 77% | 100% | 5% |  | 
6 | OC/C=C/c1ccccc1 [CINNAMIC ALCOHOL] | 0% | 73% | 0% |  | 
7 | COc1ccc(/C=C/C=O)cc1 [PARA-METHOXY CINNAMALDEHYDE] | 8% | 83% | 1% | 50% | > 5000 mg/kg
